A short description of experiment [1]: hypotensive activity in male Wistar rats under nembutal anesthesia. The format is in vivo, rat. The method, then:
Using male Wistar rats having a body weight of 350 g under nembutal anesthesia, the hypotensive activity was measured.

Experiment [2] relates to adenylate cyclase. Conditions: rat pituicytes.

Where two headings read alike, the source gives them in different places. Ends that are not written are not given here.

Regarding “PACAP38 NH2: PACAP38 NH2 synthesized on p-methyl BHA resin according to the amino acid sequence of PACAP38 (Example 5) (HSDGIFTDSYSRYRKQMAVKKYLAAVLGKRYKQRVKNK-NH2; UniProt P18509 132-169, looked up)”, the values for the hypotensive activity in experiment [1] (dosage 0.3 n mole/kg), in experiment [1] (dosage 1.0 n mole/kg) and in experiment [1] (dosage 3.0 n mole/kg) were 3.2 ± 1.9 mm Hg, 17.4 ± 2.4 mm Hg and 29.8 ± 3.6 mm Hg, respectively.
Take “Syn.27p-NH2: synthesized 27-NH2, the 1st to 27th positions of mature PACAP38, formula (1")”: the “cAMP (M ± SEM)” value in experiment [2] (peptide 10^-7 M) worked out at 9.20 ± 0.20 p mol/ml; in experiment [2] (peptide 10^-8 M), 9.20 ± 0.00 p mol/ml; in experiment [2] (peptide 10^-9 M) it was 7.90 ± 0.30 p mol/ml; in experiment [2] (peptide 10^-10 M) it was 4.00 ± 0.20 p mol/ml; in experiment [2] (peptide 10^-11 M), 2.55 ± 0.15 p mol/ml; in experiment [2] (peptide 10^-12 M), 2.05 ± 0.15 p mol/ml. For the same substance, the hypotensive activity turned out to be 14.5 ± 3.1 mm Hg in experiment [1] (dosage 0.3 n mole/kg), 51.9 ± 9.6 mm Hg in experiment [1] (dosage 1.0 n mole/kg) and 4.1 mm Hg in experiment [1] (dosage 3.0 n mole/kg).

For the origin of these results see US5198542A, “DNA encoding a pitvitary adenylate cyclase activating protein and use thereof” (Takeda Chemical Industries, Inc., priority 1989, dated 1993).
